Test results reported in publication PMC12491518, “Fabrication of cytotoxic mirror image nanopores” (Nature Communications, 2025).
Where a SMILES comes first, the peptide text is derived from it. [ ]: non-standard residue; d: D form.

Tests used:
MDA-MB-231 cells [1] = assay: Cell membrane integrity by CellMask Deep Red staining; type: cell-based, human; settings: 25 µM, 24 h
Method: MDA-MB-231 cells were seeded in a 24-well plate (Thermo Fisher Scientific, 142475) containing sterilized coverslips (Blue star, Microscopic cover glass circular 12 mm 10 gm) at a cell density of 3 × 10^4 cells per well. 24 h post-seeding, cells were treated with DpPorA DE peptide, 5-FAM-DpPorA DE peptide, or a corresponding concentration of DDM. After 24 h of treatment, cells were stained with CellMask Deep Red (Thermo Fisher Scientific, C10046; 1:4000 dilution in PBS) for 5 min at 37 °C. After membrane staining, the cells were washed with PBS and fixed in 2% PFA (Himedia, TCL119) for 5 min. After PBS wash, the coverslips were carefully removed from the wells and mounted with ProLong™ Gold Antifade Mountant (Invitrogen, P10144). The cells were immediately visualized within 60 min using the Carl Zeiss Axio Observer fluorescence microscope. Fluorescence was quantified by drawing the ROI around individual cells to measure the green channel intensity (5-FAM-DpPorA DE). Integrated Density was measured using ImageJ software for 50 cells per group. […]
g) Preparation of DDM and peptides for testing on cancer cells
Lyophilized DpPorA, LpPorA, DpPorA DE, LpPorA DE and 5-FAM-DpPorA DE were reconstituted in 0.1% DDM [1 µL of 100 µg mL-1 DDM (Sigma-Aldrich Merck, D5172) in PBS (Gibco - 14040)], resulting in a peptide concentration of 1.7 mM. Subsequent concentrations were diluted with DMEM, 10% FBS, and 1% Penicillin /Streptomycin-containing media. (Supplementary Table 2) h) Cell membrane integrity analysis and statistics
Immunofluorescence (IF) images were analyzed to assess the impact of different treatments on cell membrane integrity. Cells were categorized into Intact and Disrupted groups based on membrane integrity observed by CellMask cell membrane staining. We evaluated a t least 100 cells for each group - Control, DDM-treated cells and peptide-treated cells- with independent analysis done by a student blinded to the groups' identity . […]
indicating a loss of cell membrane integrity. This categorization provided a clear and systematic approach to quantify the effects of various treatments on cell membrane integrity.
For three independent experiments, data in bar graphs represent mean (± standard deviation) fold change relative to Control groups. Differences between the two datasets were assessed using Welch’s test. Statistical significance is indicated as: *p<0.05, **p<0.01, ***p<0.001,

MDA-MB-231 cells [2] = type: cell-based, human; settings: 10 µM and 20 µM, 24 h, MTT, n = 3
Method: The MDA-MB-231 cell line was obtained from ATCC (Kind gift from Dr. Annapoorni Rangarajan, Indian Institute of Science, Bengaluru, Karnataka, India) and tested negative for mycoplasma contamination. Cells were cultured in DMEM (Gibco, 11965-092) supplemented with 10% FBS (Thermo Fisher Scientific, 10270-106) and Penicillin (100 Units/mL) /Streptomycin (100 µg/mL) (Thermo Fisher Scientific, 15070-063). […] Cell proliferation was measured 24 h after the addition of Peptide/ DDM using MTT assay (3-(4,5-dimethylthiazol-2-yl)-2,5-diphenyltetrazolium bromide, M6494, Thermo Fischer Scientific). […] The purple-colored formazan crystals were dissolved by adding 100 µL DMSO (D5879, Sigma Aldrich), and the absorbance at 570 nm was measured using a plate reader (EMax plus microplate reader). […]
Immunofluorescence (IF) images were analyzed to assess the impact of different treatments on cell membrane integrity. […] We evaluated a t least 100 cells for each group - Control, DDM-treated cells and peptide-treated cells- with independent analysis done by a student blinded to the groups' identity . […]
indicating a loss of cell membrane integrity. This categorization provided a clear and systematic approach to quantify the effects of various treatments on cell membrane integrity. […]

Compound | Cell number, Disrupted phenotype (MDA-MB-231 cells [1]) | Cell number, Intact phenotype (MDA-MB-231 cells [1]) | cells with Disrupted membrane phenotype (MDA-MB-231 cells [1]; at least 100 cells) | cells with Intact membrane phenotype (MDA-MB-231 cells [1]; at least 100 cells) | change in cell viability (MDA-MB-231 cells [2])
CC[C@@H](C)[C@@H](NC(=O)[C@H](N)CCSC)C(=O)N[C@H](CC(=O)O)C(=O)N[C@H](CCC(N)=O)C(=O)N[C@@H](C(=O)N[C@@H](C(=O)N[C@H](CCC(=O)O)C(=O)N[C@@H](C(=O)N[C@H](Cc1ccccc1)C(=O)NCC(=O)N[C@H](CCC(N)=O)C(=O)N[C@H](CC(C)C)C(=O)NCC(=O)N[C@@H](C(=O)N[C@H](Cc1ccccc1)C(=O)N[C@H](CC(C)C)C(=O)NCC(=O)NCC(=O)N[C@H](Cc1ccccc1)C(=O)NCC(=O)N[C@H](CC(N)=O)C(=O)N[C@@H](C(=O)N[C@H](Cc1ccccc1)C(=O)N[C@H](CCCCN)C(=O)NCC(=O)N[C@H](CC(C)C)C(=O)N[C@H](CCCCN)C(=O)N[C@H](C)C(=O)N[C@@H](C(=O)N[C@@H](C(=O)N[C@H](C)C(=O)N[C@@H](C(=O)N[C@@H](C(=O)N[C@@H](C(=O)N[C@H](CCCCN)C(=O)N[C@H](Cc1c[nH]c2ccccc12)C(=O)N[C@@H](C(=O)N[C@H](C)C(=O)N[C@H](C)C(=O)N[C@H](CCCCN)C(=O)O)[C@H](C)O)C(C)C)[C@H](C)CC)[C@H](C)O)[C@H](C)CC)C(C)C)[C@H](C)CC)[C@H](C)O)[C@H](C)CC)[C@H](C)O)[C@H](C)CC [DpPorA DE] (H-[dM][dI][dD][dQ][dI][dT][dE][dI][dF]G[dQ][dL]G[dT][dF][dL]GG[dF]G[dN][dI][dF][dK]G[dL][dK][dA][dV][dI][dA][dT][dI][dV][dK][dW][dT][dA][dA][dK]-OH; N-terminus and C-terminus assumed) | 158 | 1 | 99.37% | 0.63% | –
CC[C@@H](C)[C@@H](NC(=O)[C@H](N)CCSC)C(=O)N[C@H](CC(=O)O)C(=O)N[C@H](CCC(N)=O)C(=O)N[C@@H](C(=O)N[C@@H](C(=O)N[C@H](CCC(=O)O)C(=O)N[C@@H](C(=O)N[C@H](Cc1ccccc1)C(=O)NCC(=O)N[C@H](CCC(N)=O)C(=O)N[C@H](CC(C)C)C(=O)NCC(=O)N[C@@H](C(=O)N[C@H](Cc1ccccc1)C(=O)N[C@H](CC(C)C)C(=O)NCC(=O)NCC(=O)N[C@H](Cc1ccccc1)C(=O)NCC(=O)N[C@H](CC(N)=O)C(=O)N[C@@H](C(=O)N[C@H](Cc1ccccc1)C(=O)N[C@H](CCCCN)C(=O)NCC(=O)N[C@H](CC(C)C)C(=O)N[C@H](CCCCN)C(=O)N[C@H](CC(=O)O)C(=O)N[C@@H](C(=O)N[C@@H](C(=O)N[C@H](CCC(=O)O)C(=O)N[C@@H](C(=O)N[C@@H](C(=O)N[C@@H](C(=O)N[C@H](CCCCN)C(=O)N[C@H](Cc1c[nH]c2ccccc12)C(=O)N[C@@H](C(=O)N[C@H](C)C(=O)N[C@H](C)C(=O)N[C@H](CCCCN)C(=O)O)[C@H](C)O)C(C)C)[C@H](C)CC)[C@H](C)O)[C@H](C)CC)C(C)C)[C@H](C)CC)[C@H](C)O)[C@H](C)CC)[C@H](C)O)[C@H](C)CC [DpPorA] (H-[dM][dI][dD][dQ][dI][dT][dE][dI][dF]G[dQ][dL]G[dT][dF][dL]GG[dF]G[dN][dI][dF][dK]G[dL][dK][dD][dV][dI][dE][dT][dI][dV][dK][dW][dT][dA][dA][dK]-OH; N-terminus and C-terminus assumed) | – | – | – | – | no significant change in viability
